Measurements taken from PMC12459184, “Design, synthesis, and bioevaluation of pyrazole-containing tubulin polymerisation inhibitors based on conformational constraint strategy” (Journal of Enzyme Inhibition and Medicinal Chemistry, 2025).
Like-named read-outs stand apart in the source and are kept apart here.

Columns and labels:
[1] = tested on: human umbilical vein endothelial cells (HUVEC); assay: MTT toxicity assay, normal cells HUVEC; assay type: cell-based; details: for IC50: Homo sapiens, HUVEC, read-out: IC50 (μM) ± SD HUVEC; for SI-H: SI-H = IC50 (HUVEC)/IC50 (PC-3)
Method: The toxicity of compounds 4k and 5a was also tested by using human umbilical vein endothelial cells (HUVEC) and human liver cells (L02).
(§1) Cells grown in logarithmic phase were harvested and seeded onto 96-well cell plates at a density of 4 ∼ 5 × 10^3 cells per well (various from cell type) and were cultured for 24 h. Different concentrations of compounds were added into the wells, and the cells were cultured for another 72 h. The medium was removed, then 20 μL of MTT (5 mg/mL in PBS) was added to each well and the cells were incubated for 4 h. 150 μL of DMSO was added to each well to dissolve the formazan, and the absorbance at 490 nm of each well was measured by a microplate reader. IC50 values were calculated by SPSS software.

PC-3 cells [2] = assay: Cell apoptosis analysis, Annexin V-FITC/PI flow cytometry; assay type: cell-based, human; details: 48 h
Method: To investigate the effect of 4k and 5a on cell apoptosis, flow cytometry was used to analyse the cell apoptosis of PC-3 cells. […] Early apoptosis cells could only be stained by Annexin V-FITC, while late apoptosis cells could be stained by both Annexin V-FITC and PI.
PC-3 cells in logarithmic phase were harvested and seeded onto 6-well cell plates at a density of 2.5 × 10^5 cells per well, and were cultured for 24 h. […] The cells were digested using trypsin and were harvested, washed twice with PBS, and resuspended in 500 μL binding buffer, followed by the addition of 100 μL of the cell suspension to 5 μL of Annexin V-FITC and 5 μL of PI. After stained for 15 min in a dark at room temperature, the samples were added 400 μL of binding buffer and detected by FACScan flow cytometry (BectoneDickinson, Franklin Lakes, NJ, USA).

PC-3 cells [3] = assay: Colony formation assay; assay type: cell-based, human; details: PC-3, 20 nM, 24 h treatment then one week culture
Description: Colony formation assay was selected to assess the effect of 4k and 5a on clonogenic formation of PC-3 cells.
PC-3 cells in logarithmic phase were harvested and seeded onto 12-well cell plates at a density of 1 × 10^3 cells per well. […] Then the medium was removed, and cells were washed with PBS and added fresh medium containing 10% FBS. The cells were continued to culture for one week. The medium was removed, and the cells were fixed with 4% paraformaldehyde and subsequently stained with crystal violet solution. Images were taken and analysed by Fiji/ImageJ software.

MCF-7 cells = assay: MTT antiproliferative assay, MCF-7; assay type: cell-based; details: Homo sapiens, read-out: IC50 (μM) ± SD MCF-7
Method: (§2) The in vitro antiproliferative activities of all target compounds 4a−k, 5a−h, and 6a−h were assayed by MTT method using human gastric cancer cell line SGC-7901 and human breast cancer cell line MCF-7.
(§3) All cell lines tested in this study were purchased from the American Type Culture Collection (ATCC, Manassas, VA). SGC-7901 (human gastric adenocarcinoma), HCT-116 (human colon carcinoma), and A549 (human pulmonary carcinoma) cells were cultured in RPMI-1640 medium containing 10% foetal serum (FBS) and 1% penicillin-streptomycin solution (100×). MCF-7 (human breast carcinoma) cells were cultured in DMEM medium containing 10% foetal serum (FBS) and 1% penicillin-streptomycin solution (100×). PC-3 (human prostate carcinoma) cells were cultured in Ham’s F-12K medium containing 10% foetal serum (FBS) and 1% penicillin-streptomycin solution (100×). All cells were cultured at 37 °C in a humidified atmosphere containing 5% CO2.
as §1

PC-3 cells [4] = assay: Wound healing assay; assay type: cell-based, human; details: 24 h, control group 48.7%
Method: To investigate the effect of 4k and 5a on cell migration, wound healing assay was used on PC-3 cells.
PC-3 cells in logarithmic phase were harvested and seeded onto 12-well cell plates at a density of 2.5 × 10^5 cells per well, and were cultured for 24 h. Scratches were made in confluent monolayers using 200 μL pipette tip, and the cells were washing twice with PBS to remove all the non-adherent cells. […] Images of wounds were taken at 0 h and 24 h and analysed by Fiji/ImageJ software.

Cyclin B1 = assay: Western blot assay, Cyclin B1; assay type: cell-based, human; details: PC-3 cells, at the concentrations of 20 and 40 nM
Method: Additionally, western blot assay was employed to measure the expression level of cell cycle-related proteins cyclin-dependent kinase 1 (CDK1) and Cyclin B1.
PC-3 cells in logarithmic phase were harvested and seeded onto culture plates, and were cultured for 24 h. […] The proteins of PC-3 cells were extracted by RIPA buffer containing 1% PMSF (Beyotime Biotechnology, China). The protein concentration was measured by BCA Assay Kit (SEVEN Biotech, China). Equal amounts and concentration of protein were diluted in 5× loading buffer (Beyotime, China) and denatured by boiled for 5 min. Protein samples were separated on 12.5% SDS-PAGE gels (EpiZyme, China) and transferred to PVDF membranes (Millipore Corporation, Billerica, MA, USA). The membranes were blocked in QuickBlockTM Block Buffer (SEVEN Biotech, China) for 10 min at room temperature. Then the membranes were incubated with the primary antibodies overnight at 4 °C, including Cyclin B1 (1:2000, Proteintech, China), CDK1 (1:5000, Proteintech, China), BAX (1:5000, Proteintech, China), Bcl2 (1:1000, Proteintech, China), Caspase 9/p35/p10 (1:1000, Proteintech, China), and β-actin (1:20 000, Proteintech, China). […] The protein signals were detected by using chemiluminescent reagents kit (NCM Biotech, China) and visualised with ChemiDocImaging System (Tanon 5200, China). Protein expressions was quantified by using Fiji/ImageJ software.

SGC-7901 cells = assay: MTT antiproliferative assay, SGC-7901; assay type: cell-based; details: Homo sapiens, read-out: IC50 (μM) ± SD SGC-7901
Method: as §2, §3, §1

tubulin = assay: In vitro tubulin polymerisation assay; assay type: biochemical
Method: To investigate the effect of compounds 4k and 5a on microtubule system, their tubulin polymerisation inhibition activities were evaluated using in vitro tubulin polymerisation assay.
The BK001 kit used in this test was purchased from Cytoskeleton Inc. (Denver, CO, USA). […] Then the mixtures were transferred to 37 °C and tubulin assembly was monitored (excitation wavelength: 360 nm; emission wavelength: 420 nm) at 1 min intervals for 90 min by a microplate reader.

SMILES	IC50 ([1]; 72 h drug exposure, MTT assay, normal cells)	SI-H [1]	percentage of apoptosis cells (PC-3 cells [2]; PC-3, 10 nM, vehicle 18.3%)	percentage of apoptosis cells (PC-3 cells [2]; PC-3, 25 nM, vehicle 18.3%)	colony formation compared to control (PC-3 cells [3])	IC50 (MCF-7 cells; MCF7, 72 h drug exposure, MTT assay)	recover percentage of scratches (PC-3 cells [4]; PC-3, 10 nM)	recover percentage of scratches (PC-3 cells [4]; PC-3, 20 nM)	level of Cyclin B1 (Cyclin B1)	IC50 (SGC-7901 cells; SGC-7901, 72 h drug exposure, MTT assay)	effect on tubulin polymerisation (fluorescence intensity) (tubulin; 5 μM and 10 μM)	tubulin polymerisation inhibitory potency compared with colchicine (3 μM) (tubulin; 5 μM and 10 μM)	IC50 ([1]; 72 h)	percentage of apoptosis cells (PC-3 cells [2]; PC-3, 100 nM, vehicle 18.2%)	percentage of apoptosis cells (PC-3 cells [2]; PC-3, 200 nM, vehicle 18.2%)	IC50 (MCF-7 cells; MCF7, 72 h)	IC50 (SGC-7901 cells; SGC-7901, 72 h)	effect on tubulin polymerisation (fluorescence intensity) (tubulin; 10 μM and 20 μM)	tubulin polymerisation inhibitory potency compared with colchicine (3 μM) (tubulin; 20 μM)
COc1cc(C(=O)c2nn(-c3ccc(N)cc3)cc2N)cc(OC)c1OC [4k, (4-amino-1–(4-aminophenyl)-1H-pyrazol-3-yl)(3,4,5-trimethoxyphenyl)methanone]	0.57 ± 0.167 µM	39.11	27.1%	34.1%	5.7%	0.031 ± 0.005 µM	42.7%	20.2%	increase	0.017 ± 0.002 µM	inhibition of tubulin polymerisation	higher potency than colchicine	–	–	–	–	–	–	–
COc1cc(C2=NCC(=O)Nc3cn(-c4ccccc4)nc32)cc(OC)c1OC [5a, 2-Phenyl-8–(3,4,5-trimethoxyphenyl)-2,6-dihydropyrazolo[4,3-e][1,4]diazepin-5(4H)-one]	–	147.7	–	–	34.9%	–	32.3%	23.3%	increase	–	–	–	0.86 ± 0.229 µM	26.6%	41.5%	1.78 ± 0.617 µM	0.018 ± 0.003 µM	inhibition of tubulin polymerisation	superior inhibitory potency compared to colchicine
